Data from the Kinase Knowledgebase extract (Sharma et al. 2016).

Target: MAPK14 (human) (UniProt Q16539)
Assay: Inhibtion of MAPK14 Kinase Activity

Chain of MAPK14 (human) (Q16539 whole entry, looked up): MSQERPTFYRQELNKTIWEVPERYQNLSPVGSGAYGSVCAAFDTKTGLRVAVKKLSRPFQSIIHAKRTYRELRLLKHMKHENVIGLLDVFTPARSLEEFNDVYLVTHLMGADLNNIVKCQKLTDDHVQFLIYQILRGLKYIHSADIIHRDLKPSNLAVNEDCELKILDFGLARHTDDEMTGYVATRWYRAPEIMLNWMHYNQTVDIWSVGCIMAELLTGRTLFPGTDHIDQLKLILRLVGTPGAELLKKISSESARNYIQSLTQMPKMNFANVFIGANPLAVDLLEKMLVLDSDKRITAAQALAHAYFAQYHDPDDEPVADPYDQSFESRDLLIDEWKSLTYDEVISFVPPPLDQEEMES

**Q.** How did the IC50 turn out when `Cc1cc(C(=O)c2ccc(=O)n(-c3ccc(OCCCN[C@@H](CC(C)C)C(=O)O)cc3)c2N)ccc1F` was run?
**A.** < 100 nM
